# According to patent publication US20250296953A1, “3,4-THIAZOLO-STEROIDS AND METHODS OF MAKING AND USING THE SAME” (Arkansas State University - Jonesboro, priority 2018, published 2025):
# Like-named read-outs stand apart in the source and are kept apart here.
# What was measured:
# [1] = system: 60 different human tumor cell lines; experiment: cells
# [2] = system: RPMI-8226; experiment: NCI 60 five dose screen; conditions: for GI50 / CC50: Homo sapiens; for GI50: RPMI-8226; for CC50: RPMI-8226, read-out: LC50
# [3] = system: SF-539; experiment: NCI 60 one dose screen; type: cell-based, human; conditions: one dose; CNS Cancer; SF-539
# [4] = system: HCT-15 (Colon Cancer); experiment: NCI 60 one dose screen; type: cell-based, human
# [5] = system: SR; experiment: NCI 60 five dose screen; conditions: for GI50 / CC50: Homo sapiens, SR; for CC50: read-out: LC50
smiles,measurement,setting,value
"C[C@]12CCc3sc(NCCc4ccccc4)nc3C1=CC[C@@H]1[C@@H]2CC[C@]2(C)C(=O)CC[C@@H]12 [IIa.2, (1S,2R,13R,14S,18S)-2,18-dimethyl-7-(2-phenylethylamino)-6-thia-8-azapentacyclo [11.7.0.02,10.05,9.014,18]icosa-5(9),7,10-trien-17-one]",GI50,[1]; 60 cell,3.35 µM
same,CC50,"[1]; 60 cell, read-out: LC50",> 100 µM
same,GI50,[1]; 786-0,2.82 µM
same,CC50,"[1]; 786-0, read-out: LC50",> 100 µM
same,GI50,[1]; A498,4.43 µM
same,CC50,"[1]; A498, read-out: LC50",> 100 µM
same,GI50,[1]; A549,7 µM
same,CC50,"[1]; A549, read-out: LC50",> 100 µM
same,GI50,[1]; ACHN,1.96 µM
same,CC50,"[1]; ACHN, read-out: LC50",7.19 µM
same,GI50,[1]; BT-549,2.42 µM
same,CC50,"[1]; BT-549, read-out: LC50",> 100 µM
same,GI50,[1]; CAKI-1,3.13 µM
same,CC50,"[1]; CAKI-1, read-out: LC50",> 100 µM
same,GI50,[1]; CCRF-CEM,2.63 µM
same,CC50,"[1]; CCRF-CEM, read-out: LC50",> 100 µM
same,GI50,[1]; COLO 205,3.03 µM
same,CC50,"[1]; COLO 205, read-out: LC50",> 100 µM
same,GI50,[1]; DU-145,3.64 µM
same,CC50,"[1]; DU-145, read-out: LC50",> 100 µM
same,GI50,[1]; EKVX,90.1 µM
same,CC50,"[1]; EKVX, read-out: LC50",> 100 µM
same,GI50,[1]; HCC 2998,8.19 µM
same,CC50,"[1]; HCC 2998, read-out: LC50",> 100 µM
same,GI50,[1]; HCT-15,1.57 µM
same,CC50,"[1]; HCT-15, read-out: LC50",88.7 µM
same,GI50,[1]; HCT-116,2.87 µM
same,CC50,"[1]; HCT-116, read-out: LC50",> 100 µM
same,GI50,[1]; HL-60,2.93 µM
same,CC50,"[1]; HL-60, read-out: LC50",> 100 µM
same,GI50,[1]; HOP-62,8.52 µM
same,CC50,"[1]; HOP-62, read-out: LC50",> 100 µM
same,GI50,[1]; HOP-92,2.75 µM
same,CC50,"[1]; HOP-92, read-out: LC50",> 100 µM
same,GI50,[1]; HT-29,2.21 µM
same,CC50,"[1]; HT-29, read-out: LC50",> 100 µM
same,GI50,[1]; Hs-578T,2.85 µM
same,CC50,"[1]; Hs-578T, read-out: LC50",> 100 µM
same,GI50,[1]; IGROV-1,2.6 µM
same,CC50,"[1]; IGROV-1, read-out: LC50",65.6 µM
same,GI50,[1]; K562,2.89 µM
same,CC50,"[1]; K562, read-out: LC50",> 100 µM
same,GI50,[1]; KM12,3.6 µM
same,CC50,"[1]; KM12, read-out: LC50",> 100 µM
same,GI50,[1]; LOX IMVI,1.7 µM
same,CC50,"[1]; LOX IMVI, read-out: LC50",5.91 µM
same,GI50,[1]; M14,3.63 µM
same,CC50,"[1]; M14, read-out: LC50",> 100 µM
same,GI50,[1]; MCF7,2.68 µM
same,CC50,"[1]; MCF7, read-out: LC50",> 100 µM
same,GI50,[1]; MDA-MB-231,3.4 µM
same,CC50,"[1]; MDA-MB-231, read-out: LC50",> 100 µM
same,GI50,[1]; MDA-MB-435,3.01 µM
same,CC50,"[1]; MDA-MB-435, read-out: LC50",> 100 µM
same,GI50,[1]; MDA-MB-468,2.99 µM
same,CC50,"[1]; MDA-MB-468, read-out: LC50",> 100 µM
same,GI50,[1]; MOLT-4,2.58 µM
same,CC50,"[1]; MOLT-4, read-out: LC50",> 100 µM
same,GI50,[1]; Malme-3M,2.18 µM
same,CC50,"[1]; Malme-3M, read-out: LC50",> 100 µM
same,GI50,[1]; NCI-H23,5.03 µM
same,GI50,[1]; NCI-H226,2.42 µM
same,CC50,"[1]; NCI-H226, read-out: LC50",> 100 µM
same,GI50,[1]; NCI-H322M,96.9 µM
same,CC50,"[1]; NCI-H322M, read-out: LC50",> 100 µM
same,GI50,[1]; NCI-H460,4.47 µM
same,CC50,"[1]; NCI-H460, read-out: LC50",> 100 µM
same,GI50,[1]; NCI-H522,1.78 µM
same,CC50,"[1]; NCI-H522, read-out: LC50",7.45 µM
same,GI50,[1]; NCI/ADR-RES,2.31 µM
same,CC50,"[1]; NCI/ADR-RES, read-out: LC50",> 100 µM
same,GI50,[1]; OVCAR-3,2.08 µM
same,CC50,"[1]; OVCAR-3, read-out: LC50",> 100 µM
same,GI50,[1]; OVCAR-4,3.93 µM
same,CC50,"[1]; OVCAR-4, read-out: LC50",> 100 µM
same,GI50,[1]; OVCAR-5,4.44 µM
same,CC50,"[1]; OVCAR-5, read-out: LC50",> 100 µM
same,GI50,[1]; OVCAR-8,2.77 µM
same,CC50,"[1]; OVCAR-8, read-out: LC50",> 100 µM
same,GI50,[1]; RXF 393,1.73 µM
same,CC50,"[1]; RXF 393, read-out: LC50",30.9 µM
same,GI50,[1]; SF-268,4.62 µM
same,CC50,"[1]; SF-268, read-out: LC50",> 100 µM
same,GI50,[1]; SK-MEL-2,17 µM
same,CC50,"[1]; SK-MEL-2, read-out: LC50",> 100 µM
same,GI50,[1]; SK-MEL-5,4.57 µM
same,CC50,"[1]; SK-MEL-5, read-out: LC50",> 100 µM
same,GI50,[1]; SK-MEL-28,3.37 µM
same,CC50,"[1]; SK-MEL-28, read-out: LC50",> 100 µM
same,GI50,[1]; SK-OV-3,> 100 µM
same,CC50,"[1]; SK-OV-3, read-out: LC50",> 100 µM
same,GI50,[1]; SN12C,2.89 µM
same,CC50,"[1]; SN12C, read-out: LC50",> 100 µM
same,GI50,[1]; SNB-19,97.5 µM
same,CC50,"[1]; SNB-19, read-out: LC50",> 100 µM
same,GI50,[1]; SNB-75,2.67 µM
same,CC50,"[1]; SNB-75, read-out: LC50",> 100 µM
same,GI50,[1]; SW-620,2.3 µM
same,CC50,"[1]; SW-620, read-out: LC50",> 100 µM
same,GI50,[1]; T47D,3.05 µM
same,CC50,"[1]; T47D, read-out: LC50",> 100 µM
same,GI50,[1]; TK-10,4.15 µM
same,CC50,"[1]; TK-10, read-out: LC50",> 100 µM
same,GI50,[1]; U-251,4.97 µM
same,CC50,"[1]; U-251, read-out: LC50",> 100 µM
same,GI50,[1]; UACC-62,2.67 µM
same,CC50,"[1]; UACC-62, read-out: LC50",> 100 µM
same,GI50,[1]; UACC-257,4.92 µM
same,CC50,"[1]; UACC-257, read-out: LC50",> 100 µM
same,GI50,[1]; UO-31,4.03 µM
same,CC50,"[1]; UO-31, read-out: LC50",> 100 µM
same,GI50,[2],1.79 µM
same,CC50,[2],> 100 µM
same,TGI,"[2]; RPMI-8226 (Leukemia), five dose",5.69E−6
same,Growth Percent,[3],64.79%
same,Growth Percent,[4],22.48%
same,GI50,[5],3.07 µM
same,CC50,[5],> 100 µM
same,TGI,"[5]; SR (Leukemia), five dose",>1.00E−4
"C[C@]12CCc3sc(Nc4ccc(F)cc4F)nc3C1=CC[C@@H]1[C@@H]2CC[C@]2(C)C(=O)CC[C@@H]12 [IIa.10, (1S,2R,13R,14S,18S)-7-(2,4-difluoroanilino)-2,18-dimethyl-6-thia-8-azapentacyclo[11.7.0.02,10.05,9.014,18]icosa-5(9),7,10-trien-17-one]",CC50,"[1]; 60 cell, read-out: LC50",> 100 µM
same,CC50,"[1]; A498, read-out: LC50",> 100 µM
same,CC50,"[1]; A549, read-out: LC50",> 100 µM
same,GI50,[1]; ACHN,1.81 µM
same,CC50,"[1]; BT-549, read-out: LC50",> 100 µM
same,CC50,"[1]; CAKI-1, read-out: LC50",> 100 µM
same,GI50,[1]; CCRF-CEM,2.64 µM
same,CC50,"[1]; CCRF-CEM, read-out: LC50",> 100 µM
same,GI50,[1]; DU-145,1.98 µM
same,CC50,"[1]; EKVX, read-out: LC50",> 100 µM
same,GI50,[1]; HCT-15,1.7 µM
same,CC50,"[1]; HCT-15, read-out: LC50",> 100 µM
same,GI50,[1]; HCT-116,1.67 µM
same,CC50,"[1]; HL-60, read-out: LC50",> 100 µM
same,CC50,"[1]; HOP-62, read-out: LC50",> 100 µM
same,CC50,"[1]; HOP-92, read-out: LC50",> 100 µM
same,GI50,[1]; HT-29,2.24 µM
same,CC50,"[1]; HT-29, read-out: LC50",> 100 µM
same,CC50,"[1]; Hs-578T, read-out: LC50",> 100 µM
same,CC50,"[1]; IGROV-1, read-out: LC50",> 100 µM
same,GI50,[1]; K562,2.43 µM
same,CC50,"[1]; K562, read-out: LC50",> 100 µM
same,GI50,[1]; LOX IMVI,1.71 µM
same,CC50,"[1]; M14, read-out: LC50",> 100 µM
same,CC50,"[1]; MCF7, read-out: LC50",> 100 µM
same,CC50,"[1]; MDA-MB-231, read-out: LC50",> 100 µM
same,CC50,"[1]; MDA-MB-435, read-out: LC50",> 100 µM
same,GI50,[1]; MDA-MB-468,1.75 µM
same,GI50,[1]; MOLT-4,2.44 µM
same,CC50,"[1]; MOLT-4, read-out: LC50",> 100 µM
same,CC50,"[1]; Malme-3M, read-out: LC50",> 100 µM
same,CC50,"[1]; NCI-H23, read-out: LC50",> 100 µM
same,GI50,[1]; NCI-H226,1.83 µM
same,CC50,"[1]; NCI-H322M, read-out: LC50",> 100 µM
same,CC50,"[1]; NCI-H460, read-out: LC50",> 100 µM
same,GI50,[1]; NCI-H522,1.84 µM
same,CC50,"[1]; NCI/ADR-RES, read-out: LC50",> 100 µM
same,GI50,[1]; OVCAR-3,1.9 µM
same,CC50,"[1]; OVCAR-4, read-out: LC50",> 100 µM
same,CC50,"[1]; OVCAR-5, read-out: LC50",> 100 µM
same,GI50,[1]; OVCAR-8,2.96 µM
same,CC50,"[1]; OVCAR-8, read-out: LC50",> 100 µM
same,GI50,[1]; RXF 393,1.57 µM
same,CC50,"[1]; SF-268, read-out: LC50",> 100 µM
same,CC50,"[1]; SK-MEL-2, read-out: LC50",> 100 µM
same,GI50,[1]; SK-MEL-5,1.88 µM
same,CC50,"[1]; SK-OV-3, read-out: LC50",> 100 µM
same,CC50,"[1]; SN12C, read-out: LC50",> 100 µM
same,CC50,"[1]; SNB-19, read-out: LC50",> 100 µM
same,CC50,"[1]; SNB-75, read-out: LC50",> 100 µM
same,GI50,[1]; SW-620,2.4 µM
same,CC50,"[1]; SW-620, read-out: LC50",> 100 µM
same,GI50,[1]; T47D,2.25 µM
same,CC50,"[1]; T47D, read-out: LC50",> 100 µM
same,GI50,[1]; TK-10,2.8 µM
same,CC50,"[1]; TK-10, read-out: LC50",> 100 µM
same,CC50,"[1]; U-251, read-out: LC50",> 100 µM
same,CC50,"[1]; UACC-62, read-out: LC50",> 100 µM
same,CC50,"[1]; UACC-257, read-out: LC50",> 100 µM
same,GI50,[2],1.88 µM
same,CC50,[2],> 100 µM
same,Growth Percent,[3],49.60%
same,Growth Percent,[4],7.76%
same,GI50,[5],2.9 µM
same,CC50,[5],> 100 µM
